Measurements published in patent US6001882A (priority 1997, dated 1999).
pIC50: −log10 of the molar value. Read-outs that look alike come from different tables or passages of the source.

Experiments:
[1] = test system: PBMC obtained from a patient having CTCL; assay: Induction of apoptosis of CTCL PBMC, TUNEL assay (Example 2); assay type: cell-based, human; settings: for percentage of PBMC which underwent apoptosis: 10 μM hypericin or 100 ng/ml 8-MOP
Method: The processing of neoplastic leukocytes, the media and stock solutions used, and the procedures which were used were the same as those presented in Example 1, except as described below.
Cultures were illuminated using fluorescent light for 20 minutes, illuminated with 2 J/cm^2 UV-A light or were not illuminated. After 24 and 48 hours, apoptosis was measured using a TUNEL assay, as described (Sgonc, 1994 Trends Gen. 10:41-42). The TUNEL assay specifically labels free ends of internucleosomally-cleaved DNA--the hallmark of the apoptotic process.

[2] = test system: PBMC obtained from a normal human subject; assay: Induction of apoptosis in normal PBMC, TUNEL assay (Example 3); assay type: cell-based; settings: for percentage of PBMC which underwent apoptosis: Normal, 18 h; for capability of inducing apoptosis: normal leukocytes, visible light
transformed ("EBV") PBMC = assay: Lymphocyte proliferation (3H-TdR incorporation), EBV-transformed PBMC; assay type: cell-based, human; settings: for pIC50: read-out: IC50 of cell proliferation; for ability to inhibit proliferation, 2 vs 1 J/cm^2: UV-A 2 J/cm^2 relative to 1 J/cm^2; for effect of UV-A on ability to inhibit proliferation: UV-A vs none; for effect of visible light on ability to inhibit proliferation: visible light vs none
From the text: In two of the types of lymphocytes, the mitogen, ConA, was used to induce proliferation, as described (Fox et al., 1993, Cell. Immunol. 150:45-58). The third type of lymphocytes used in this example proliferated actively in vitro without the need for mitogenic stimulation. The three types of lymphocytes which were used in this example were: PBMC obtained from a normal human subject and stimulated with ConA; PBMC, including malignant CD4+ T-lymphocytes, obtained from a human subject having CTCL and stimulated with ConA; and PBMC obtained from a normal human subject, which PBMC were exposed to Epstein-Barr virus (EBV) after being obtained from the subject, to produce transformed lymphocytes. It is known that EBV-transformed B-lymphocytes proliferate actively in vitro (Polack, 1996, Proc. Natl. Acad. Sci. U.S.A. 93:10411-10416; Longnecker, 1994, Leukemia 8:546-550).
Peripheral blood mononuclear cells (PBMC) were obtained by separating them from whole blood, using Ficoll-Paque separation techniques and media (Boyum, 1964, Nature 793-794). After they were obtained, PBMC were resuspended in RPMI 1640 medium, which comprised 10% (v/v) fetal bovine serum (GIBCO, Grand Island, N.Y.), and were distributed into the wells of 96-well microtiter plates. PBMC transformed using EBV were made as described (Neitzel, 1986, Hum. Gen. 73:320-326)
This stock solution stored at 4° C. in the dark. A stock solution comprising 462.5 μM 8-methoxypsoralen (8-MOP) was prepared in 2% (v/v) benzyl alcohol. 8-MOP was obtained from Sigma (St. Louis, Mo.).
In cultures of transformed leukocytes in which 8-MOP was used, the concentrations of 8-MOP which were used were 92.5 μM, 18.5 μM, 3.7 μM, 0.74 μM, 0.15 μM, and 0.030 μM. Thereafter, ConA was then added to preselected wells to achieve a final concentration of 10 μg/ml of ConA in those wells.
Following preparation of the microtiter culture plates, preselected plates were illuminated with fluorescent visible light for 10-30 minutes, using four fluorescent bulbs (type F15T8CW, TFC Inc., Taiwan) spaced at a distance of 9 cm above the plates. Other preselected plates were illuminated with 0.5-2 Joules per square centimeter UV-A light using a UV-A light box containing 8 UVAR 06-91 bulbs. Still other preselected plates were not exposed to light. The covers of plates which were exposed to light were left in place during illumination.
Following illumination, plates which had been illuminated were placed into a dark incubator which was maintained at 37° C. Non-illuminated plates were placed into the incubator immediately after preparation. All plates were incubated for seventy-two hours. During the final eighteen hours of incubation, tritiated thymidine (^3 H-TdR) was added to each well of each plate. No extraordinary precautions were used to prevent light exposure during the addition of ^3 H-TdR.
Lymphocyte proliferation was assessed by measuring the extent of incorporation of ^3 H-TdR into newly synthesized DNA within the cells at the end of the seventy-two hour incubation period, as described (Fox, 1993, Cell. Immunol. 150:45-58).

[3] = test system: PBMC obtained from a subject having CTCL; assay: Induction of apoptosis in CTCL PBMC, TUNEL assay (Example 3); assay type: cell-based, human; settings: for percentage of PBMC which underwent apoptosis: CTCL, 18 h; for capability of inducing apoptosis: malignant leukocytes
[4] = Homo sapiens, PBMC, 10 min, visible light, 10 min
[5] = Homo sapiens, PBMC, 20 min, visible light, 20 min
[6] = Homo sapiens, PBMC, 0.5 h, visible light, 30 min
[7] = Homo sapiens, PBMC, UV-A, 0.5 J/sc
[8] = Homo sapiens, PBMC, UV-A, 1 J/sc
[9] = Homo sapiens, PBMC, UV-A, 2 J/sc
[10] = Homo sapiens, PBMC, not illuminated

| Compound | percentage of PBMC which underwent apoptosis ([1]; 24 h, UV-A 2 J/cm^2) [percentage] | percentage of PBMC which underwent apoptosis ([1]; 24 h, no light) [percentage] | percentage of PBMC which underwent apoptosis ([1]; 24 h, visible light 20 min) [percentage] | percentage of PBMC which underwent apoptosis ([1]; 48 h, UV-A 2 J/cm^2) [percentage] | percentage of PBMC which underwent apoptosis ([1]; 48 h, no light) [percentage] | percentage of PBMC which underwent apoptosis ([1]; 48 h, visible light 20 min) [percentage] | potency as inducer of apoptosis, hypericin vs 8-MOP ([1]; UV-A light) | percentage of PBMC which underwent apoptosis ([2]; 1 μM, UV-A 2 J/cm^2) [percentage] | percentage of PBMC which underwent apoptosis ([2]; 1 μM, no light) [percentage] | percentage of PBMC which underwent apoptosis ([2]; 1 μM, visible light 20 min) [percentage] | percentage of PBMC which underwent apoptosis ([2]; 10 μM, UV-A 2 J/cm^2) [percentage] | percentage of PBMC which underwent apoptosis ([2]; 10 μM, no light) [percentage] | percentage of PBMC which underwent apoptosis ([2]; 10 μM, visible light 20 min) [percentage] | capability of inducing apoptosis [2] | pIC50 (transformed ("EBV") PBMC; [4]) | pIC50 (transformed ("EBV") PBMC; [5]) | pIC50 (transformed ("EBV") PBMC; [6]) | pIC50 (transformed ("EBV") PBMC; [7]) | pIC50 (transformed ("EBV") PBMC; [8]) | pIC50 (transformed ("EBV") PBMC; [9]) | further results |
| --- | --- | --- | --- | --- | --- | --- | --- | --- | --- | --- | --- | --- | --- | --- | --- | --- | --- | --- | --- | --- | --- |
| COc1c2occc2cc2ccc(=O)oc12 [8-MOP, 8-methoxypsoralen] | 87 | 11.5 | 32 | 94 | 21 | 48 | approximately equally potent inducers of apoptosis of malignant leukocytes | 22.9 | 3.8 | 13.7 | 63.0 | 6.8 | 15.3 | not 8-MOP, is capable of inducing apoptosis in both normal and malignant leukocytes | 4.73 | 4.76 | 4.72 | 5.38 | 5.80 | 6.15 | pIC50 (transformed ("EBV") PBMC; [10]): 4.71; ability to inhibit proliferation, 2 vs 1 J/cm^2 (transformed ("EBV") PBMC): roughly doubled; effect of UV-A on ability to inhibit proliferation (transformed ("EBV") PBMC): enhanced significantly upon illumination using UV-A light; effect of visible light on ability to inhibit proliferation (transformed ("EBV") PBMC): not enhanced upon illumination using visible light; percentage of PBMC which underwent apoptosis ([3]; 1 μM, UV-A 2 J/cm^2): 44.0 percentage; percentage of PBMC which underwent apoptosis ([3]; 1 μM, no light): 2.5 percentage; percentage of PBMC which underwent apoptosis ([3]; 1 μM, visible light 20 min): 11.0 percentage; percentage of PBMC which underwent apoptosis ([3]; 10 μM, UV-A 2 J/cm^2): 74.3 percentage; percentage of PBMC which underwent apoptosis ([3]; 10 μM, no light): 2.4 percentage; percentage of PBMC which underwent apoptosis ([3]; 10 μM, visible light 20 min): 12.2 percentage; selectivity of apoptosis induction, malignant vs normal leukocytes ([3]; UV-A light): the magnitude of the selective effect was much smaller; capability of inducing apoptosis ([3]; UV-A light): capable of inducing apoptosis in malignant leukocytes; capability of inducing apoptosis ([3]; visible light): not 8-MOP, is capable of inducing apoptosis in both normal and malignant leukocytes |
| Cc1cc(O)c2c(=O)c3c(O)cc(O)c4c5c(O)cc(O)c6c(=O)c7c(O)cc(C)c8c1c2c(c34)c(c78)c65 [hypericin, 1,3,4,6,8,13-Hexahydroxy-10,11,dimethyl-phenanthro[1,10,9,8,-opqra]perylene-7,14-dione] | 88 | 11.5 | 97 | 96 | 18 | 91 | approximately equally potent inducers of apoptosis of malignant leukocytes | 21.2 | 4.8 | 18.2 | 37.3 | 5.4 | 87.9 | capable of inducing apoptosis in both normal and malignant leukocytes | 5.49 | 5.74 | 6.12 | 5.43 | 5.68 | 5.70 | potency as inducer of apoptosis, hypericin vs 8-MOP ([1]; visible light): much more potent inducer of apoptosis of malignant leukocytes than 8-MOP; IC100 (transformed ("EBV") PBMC; Homo sapiens, PBMC, 72 h, visible light, 30 min, read-out: concentration at which proliferation was completely inhibited): 3.2 µM; pIC50 (transformed ("EBV") PBMC; [10]): 4.44; ability to inhibit proliferation, 2 vs 1 J/cm^2 (transformed ("EBV") PBMC): essentially the same; effect of UV-A on ability to inhibit proliferation (transformed ("EBV") PBMC): enhanced significantly upon illumination using UV-A light; effect of visible light on ability to inhibit proliferation (transformed ("EBV") PBMC): enhanced significantly upon illumination using visible light; inhibition of proliferation after 30 min illumination (transformed ("EBV") PBMC; visible light, 30 vs 10 or 20 min): greater than that which resulted from illumination for a period of 10 or 20 minutes; percentage of PBMC which underwent apoptosis ([3]; 1 μM, UV-A 2 J/cm^2): 26.1 percentage; percentage of PBMC which underwent apoptosis ([3]; 1 μM, no light): 2.6 percentage; percentage of PBMC which underwent apoptosis ([3]; 1 μM, visible light 20 min): 17.2 percentage; percentage of PBMC which underwent apoptosis ([3]; 10 μM, UV-A 2 J/cm^2): 94.4 percentage; percentage of PBMC which underwent apoptosis ([3]; 10 μM, no light): 2.8 percentage; percentage of PBMC which underwent apoptosis ([3]; 10 μM, visible light 20 min): 94.3 percentage; capability of inducing apoptosis ([3]; UV-A light): capable of inducing apoptosis in malignant leukocytes; capability of inducing apoptosis ([3]; visible light): capable of inducing apoptosis in both normal and malignant leukocytes |
